# Assays:
# Plasmepsin II [1] = target: T1, Plasmepsin II (Plasmodium falciparum, UniProt P46925); assay: In vitro inhibition of plasmepsin-2 from Plasmodium falciparum.
# Cathepsin D = Cathepsin D (Homo sapiens, UniProt P07339); assay: Inhibitory activity against cathepsin D
# Plasmepsin II [2] = target: T1, Plasmepsin II; assay: Inhibitory activity against plasmepsin-2 from Plasmodium falciparum
# Plasmodium falciparum = assay: Inhibitory activity against Plasmodium falciparum; type: functional, organism-based
# T1 sequence (P46925 whole entry): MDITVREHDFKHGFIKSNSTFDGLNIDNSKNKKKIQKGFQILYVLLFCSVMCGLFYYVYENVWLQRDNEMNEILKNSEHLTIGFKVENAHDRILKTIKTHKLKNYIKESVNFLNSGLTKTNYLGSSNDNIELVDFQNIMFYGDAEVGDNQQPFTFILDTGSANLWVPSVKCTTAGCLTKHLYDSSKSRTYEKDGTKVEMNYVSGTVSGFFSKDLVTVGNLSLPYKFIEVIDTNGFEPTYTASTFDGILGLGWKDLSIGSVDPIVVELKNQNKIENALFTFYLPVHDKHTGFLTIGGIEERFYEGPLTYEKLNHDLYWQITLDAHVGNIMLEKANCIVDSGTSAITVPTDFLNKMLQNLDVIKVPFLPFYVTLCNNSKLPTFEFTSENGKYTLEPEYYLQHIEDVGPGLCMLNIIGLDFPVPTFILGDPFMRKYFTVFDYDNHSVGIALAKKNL
# Sequence of Cathepsin D (P07339 65-162 limits assumed): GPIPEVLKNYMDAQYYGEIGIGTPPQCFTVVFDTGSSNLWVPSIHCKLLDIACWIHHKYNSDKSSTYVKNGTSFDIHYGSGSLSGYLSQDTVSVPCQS
# Sequence of Cathepsin D (P07339 169-412 limits assumed): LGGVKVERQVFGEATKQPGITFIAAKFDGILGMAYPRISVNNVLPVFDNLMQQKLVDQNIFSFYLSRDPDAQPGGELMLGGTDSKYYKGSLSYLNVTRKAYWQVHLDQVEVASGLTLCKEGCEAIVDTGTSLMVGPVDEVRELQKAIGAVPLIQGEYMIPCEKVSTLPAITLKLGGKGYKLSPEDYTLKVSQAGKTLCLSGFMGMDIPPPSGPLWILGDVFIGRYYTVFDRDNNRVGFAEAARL
SMILES,Ki (Plasmepsin II [1]),Ki (Cathepsin D),Ki (Plasmepsin II [2]),IC50 (Plasmodium falciparum),IC50 (Cathepsin D)
CCC(C)C(NC(=O)c1ccc(CNC)cc1)C(=O)NC(CC(C)C)C(O)CC(=O)NCCCc1ccccc1 (configuration not stated),0.44 µM,1.3 µM,,,
CCCCNC(=O)CC(O)C(Cc1ccccc1)NC(=O)[C@@H](NC(=O)CN1CCC(C(N)=O)(c2ccccc2)CC1)[C@@H](C)CC (some centres not stated),0.41 µM,,,~20 µM,5.5 µM
CCCCNC(=O)CC(O)C(Cc1ccccc1)NC(=O)[C@@H](NC(=O)c1ccc(OC)cc1OC)C(C)C (some centres not stated),0.5 µM,1.6 µM,,,
CCCCNC(=O)CC(O)C(Cc1ccccc1)NC(=O)[C@@H](NC(=O)c1ccc(CN2CCCC2)cc1)[C@@H](C)CC (some centres not stated),0.22 µM,,,~10 µM,1.2 µM
CCCCNC(=O)CC(O)C(Cc1ccccc1)NC(=O)[C@@H](NC(=O)c1ccc(OC)cc1OC)c1ccccc1 (stereo in doubt; form 2),> 30 µM,6.2 µM,,,
CCCCNC(=O)CC(O)C(Cc1ccccc1)NC(=O)[C@@H](NC(=O)c1ccc(OC)cc1OC)c1ccccc1 (stereo in doubt; form 1),0.59 µM,2.1 µM,,,
CCCCNC(=O)CC(O)C(Cc1ccccc1)NC(=O)[C@@H](NC(=O)c1ccc(OC)cc1OC)[C@@H](C)CC (some centres not stated),0.22 µM,2.4 µM,,,
CC[C@H](C)[C@H](NC(=O)CN1CCC(C(N)=O)(c2ccccc2)CC1)C(=O)NC(Cc1ccccc1)C(O)CC(=O)NCCCc1ccccc1 (some centres not stated),0.6 µM,3.9 µM,,,

# Now from value to compound:
Ki (Plasmepsin II [1]),Ki (Cathepsin D),Ki (Plasmepsin II [2]),IC50 (Plasmodium falciparum),IC50 (Cathepsin D),SMILES
15 µM,0.7 µM,,,,CCCCNC(=O)CC(O)C(Cc1ccccc1)NC(=O)[C@H](NC(=O)COc1ccc2ccccc2c1)c1ccccc1 (some centres not stated)
0.56 µM,0.2 µM,,,,CCCCNC(=O)CC(O)C(Cc1ccccc1)NC(=O)[C@@H](NC(=O)COc1ccc2ccccc2c1)c1ccccc1 (some centres not stated)
5.6 µM,0.92 µM,,,,CCCCNC(=O)CC(O)C(CC(C)C)NC(=O)[C@H](CC(C)C)NC(=O)COc1ccc2ccccc2c1 (some centres not stated)
,0.32 µM,0.05 µM,,,CCCCNC(=O)CC(O)C(CC(C)C)NC(=O)[C@@H](NC(=O)Cc1ccc2ccccc2c1)[C@@H](C)CC (some centres not stated)
12 µM,1.3 µM,,,,CCCCNC(=O)CC(O)C(CC(C)C)NC(=O)[C@H](Cc1ccccc1)NC(=O)COc1ccc2ccccc2c1 (some centres not stated)
> 30 µM,0.2 µM,,,,CCCCNC(=O)CC(O)C(Cc1ccccc1)NC(=O)[C@H](CCC(N)=O)NC(=O)COc1ccc2ccccc2c1 (some centres not stated)
5.8 µM,0.11 µM,,,,CCCCNC(=O)CC(O)C(CC(C)C)NC(=O)[C@@H](NC(=O)COc1ccc2ccccc2c1)c1ccccc1 (some centres not stated)
0.11 µM,,,~10 µM,0.5 µM,CCCCNC(=O)CC(O)C(Cc1ccccc1)NC(=O)[C@@H](NC(=O)COc1ccc2ccccc2c1)[C@@H](C)CC (some centres not stated)
0.09 µM,0.05 µM,,,,CCCCNC(=O)CC(O)C(Cc1ccccc1)NC(=O)[C@@H](NC(=O)Cc1ccc2ccccc2c1)[C@@H](C)CC (some centres not stated)
